Results published in US11230526B1, “Cylcoalkenyl derivatives useful as agonists of the GPR120 and/or GPR40 receptors” (Janssen Pharmaceutica NV, priority 2018, dated 2022).

Columns and labels:
[1] = biological target: T1, Human GPR120 short form (Homo sapiens, UniProt Q5NUL3); experiment: Human GPR120 calcium flux assay, Procedure Calcium B (4200 cells/well); format: cell-based
T1 construct: expressed in transfected cells
T1 sequence (Q5NUL3 1-361): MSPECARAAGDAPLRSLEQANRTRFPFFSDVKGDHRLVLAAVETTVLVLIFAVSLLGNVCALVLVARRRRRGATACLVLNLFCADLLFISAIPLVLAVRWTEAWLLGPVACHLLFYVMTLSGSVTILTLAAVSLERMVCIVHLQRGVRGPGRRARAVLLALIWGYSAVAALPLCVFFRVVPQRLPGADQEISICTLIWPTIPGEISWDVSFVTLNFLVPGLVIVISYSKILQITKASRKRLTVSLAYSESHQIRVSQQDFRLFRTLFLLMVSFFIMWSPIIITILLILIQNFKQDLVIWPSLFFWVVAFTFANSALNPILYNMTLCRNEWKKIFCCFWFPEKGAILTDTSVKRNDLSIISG
In short: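 Agonist EC50 came from a four-parameter fit of RFU (Fmax−Fmin) read over 300 s on FLIPR. Cells were HEK293 stably transfected with human GPR120 (NM_001195755.1) at 4200 per well, serum-starved 1 h and loaded with Fluo-4 NW dye with probenecid before ligand addition.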

[2] = biological target: T2, human GPR40 (Homo sapiens, UniProt O14842); experiment: GPR40 calcium flux assay, human GPR40; format: cell-based; conditions: HEK293 cells stably expressing GPR40; table does not say human or rat
T2 construct: expressed in transfected cells
In short: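 Cells preincubated 1 h at 37° C. in HBSS, 20 mM HEPES, 0.1% BSA, then Fluo 8 calcium dye 30 min at 37° C. and 15 min at room temperature.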

T2 sequence (O14842 whole entry): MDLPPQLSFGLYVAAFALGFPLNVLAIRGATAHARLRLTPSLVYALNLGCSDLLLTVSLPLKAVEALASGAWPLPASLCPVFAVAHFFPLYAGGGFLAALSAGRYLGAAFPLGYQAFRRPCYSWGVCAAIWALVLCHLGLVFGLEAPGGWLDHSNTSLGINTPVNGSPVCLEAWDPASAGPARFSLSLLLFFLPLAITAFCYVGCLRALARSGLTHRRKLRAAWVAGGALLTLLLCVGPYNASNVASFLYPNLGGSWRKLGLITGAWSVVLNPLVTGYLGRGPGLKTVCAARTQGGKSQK

Row | EC50 [1] | EC50 [2] | SMILES
1 | 166 nM | 247 nM | O=C(O)CCc1ccc(OCC2=C(C3CCCC3)CCC(F)(F)C2)cc1C(F)(F)F [Compound 606, 3-[4-[(2-cyclopentyl-5,5-difluoro-cyclohexen-1-yl)methoxy]-2-(trifluoromethyl)phenyl]Propanoic Acid]
2 | 1150 nM | 133 nM | CCCCC1=C(COc2ccc(CCC(=O)O)c(C(F)(F)F)c2)CCC1 [Compound 370, 3-[4-[(2-butylcyclopenten-1-yl)methoxy]-2-(trifluoromethyl)phenyl]Propanoic Acid]
3 | 1770 nM | 825 nM | O=C(O)CCc1ccc(OCC2=C(C3=CCCCC3)CCC2)cc1C(F)(F)F [Compound 354, 3-[4-[[2-(cyclohexen-1-yl)cyclopenten-1-yl]methoxy]-2-(trifluoromethyl)phenyl]Propanoic Acid]
4 | 750 nM | 51 nM | CCCC1=C(COc2ccc(CCC(=O)O)c(C(F)(F)F)c2)CCC1 [Compound 389, 3-[4-[(2-propylcyclopenten-1-yl)methoxy]-2-(trifluoromethyl)phenyl]Propanoic Acid]
5 | 340 nM | 403 nM | O=C(O)CCc1ccc(OCC2=C(C3CCC4CC43)CCC2)cc1 (stereo not drawn) [Compound 455, 3-[4-[[2-(4-bicyclo[3.1.0]hexanyl)cyclopenten-1-yl]methoxy]phenyl]Propanoic Acid]
6 | 222 nM | 25 nM | O=C(O)CCc1ccc(OCC2=C(C3CCCC3)CCC2)cc1Br [Compound 421, 3-[2-bromo-4-[(2-cyclopentylcyclopenten-1-yl)methoxy]phenyl]Propanoic Acid]

The remaining lines, values behind:

Row | SMILES | EC50 [1] | EC50 [2]
7 | Cc1cc(OCC2=C(Cc3ccc(F)cc3)CCC2)c(F)cc1CCC(=O)O [Compound 350, 3-[5-fluoro-4-[[2-[(4-fluorophenyl)methyl]cyclopenten-1-yl]methoxy]-2-methyl-phenyl]Propanoic Acid] | 1770 nM | 669 nM
8 | Cc1cc(OCC2=C(C3=CCCCC3)CCC2)c(F)cc1CCC(=O)O [Compound 352, 3-[4-[[2-(cyclohexen-1-yl)cyclopenten-1-yl]methoxy]-5-fluoro-2-methyl-phenyl]Propanoic Acid] | > 5000 nM | > 10000 nM
9 | Cc1c(CCC(=O)O)ccc(OCC2=C(c3ccc(Cl)cc3)CCC2=O)c1C [Compound 145, 3-[4-[[2-(4-chlorophenyl)-5-oxo-cyclopenten-1-yl]methoxy]-2,3-dimethyl-phenyl]Propanoic Acid] | 2000 nM | > 5000 nM
10 | Cc1cc(OCC2=C(c3ccc(Cl)cc3)CCC2)c(F)cc1CCC(=O)O [Compound 289, 3-[4-[[2-(4-chlorophenyl)cyclopenten-1-yl]methoxy]-5-fluoro-2-methyl-phenyl]Propanoic Acid] | 219 nM | 1010 nM
11 | O=C(O)CCc1ccc(OCC2=C(Cc3ccccc3)CCC2)cc1C(F)(F)F [Compound 319, 3-[4-[(2-benzylcyclopenten-1-yl)methoxy]-2-(trifluoromethyl)phenyl]Propanoic Acid] | 623 nM | 55 nM
12 | CC1CCC(COc2ccc(CCC(=O)O)c(Cl)c2)=C1c1ccccc1 (stereo not drawn) [Compound 320, 3-[2-chloro-4-[(3-methyl-2-phenyl-cyclopenten-1-yl)methoxy]phenyl]Propanoic Acid] | 998 nM | 543 nM
13 | O=C(O)CCc1ccc(OCC2=C(c3ccc(Cl)cc3F)CCC2)cc1Cl [Compound 275] | 307 nM | 286 nM
14 | Cc1ccc(CC2=C(COc3cc(C)c(CCC(=O)O)cc3F)CCC2)cc1 [Compound 347, 3-[5-fluoro-2-methyl-4-[[2-(p-tolylmethyl)cyclopenten-1-yl]methoxy]phenyl]Propanoic Acid] | 1800 nM | 897 nM
15 | CC1CCC(COc2ccc(CCC(=O)O)c(C(F)(F)F)c2)=C1c1ccccc1 (stereo not drawn) [Compound 306, 3-[4-[(3-methyl-2-phenyl-cyclopenten-1-yl)methoxy]-2-(trifluoromethyl)phenyl]Propanoic Acid] | 1120 nM | 347 nM
